Experiments:
[1] = biological target: T1, PKR in ex vivo red blood cells from healthy individuals (Homo sapiens, UniProt P30613); assay: ex vivo pyruvate kinase (PKR) activity experiment, red blood cells of healthy individuals; assay type: cell-based; details: 3 hours co-cultivation
T1 construct: endogenous in cells; host or cells: human red blood cells isolated from fresh peripheral blood of healthy individuals
How it was run: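 Washed, Percoll-purified human RBCs at 1 × 10^7 cells/mL were exposed to compound (final 1–3000 nM, 1% DMSO) for 3 h at 37°C, then lysed. PKR activity in lysate was followed kinetically by fluorescence at 540/590 nm over 1 h. Slope versus 1% DMSO control gave % activation; AC50 from variable-slope fit.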

recombinant human PKR = recombinant human PKR (Homo sapiens, UniProt P30613); assay: pyruvate kinase (PKR) activity test, activation of recombinant enzyme (fluorescence kit); assay type: biochemical
Description: To test the activation effect of the compound of the present disclosure on recombinant human PKR.
3.1 A recombinant human PKR enzyme solution was prepared at a concentration of 60 ng/well (a 20 µL reaction system), and 5 µL of the solution was added into each well of a black transparent bottom 384-well plate.
3.2 Compound solutions were prepared at different concentrations, with the final concentrations of 1000/300/100 nM (containing 1% DMSO). Each 5 µL of the compound solution was added into the plate in step 3.1 and mixed well. The plate was incubated at room temperature for 10 min.
3.3 A reaction system was prepared according to the instructions of a kit (as shown in the table below), and 10 µL of the reaction system was added into each well of the 384-well plate, and mixed uniformly with the solution in step 3.2.
3.4 The 384-well plate was placed on a microplate reader to detect the fluorescence value at 540/590 nm, where the value was read every 2 minutes and the detection was conducted continuously for 1 hour.
3.5 The Slope value within the detection time was calculated, and the 1% DMSO well was used as a control well to calculate a compound activation rate. Activation rate % = (Slopeofcompoundwell/Slopeofcontrolwell) × 100% [formula]
With the log value of the compound concentration as the X axis and the percentage activation rate as the Y axis, a dose-effect curve was fitted with the log(agonist) vs. response-variable slope of the analysis software GraphPad Prism 5, and the AC50 value of the activity of each compound against PKR was obtained. Y = min + (max−min)/(1+10^(∧)((LogAC50−X)×Hillslope)). [formula]

[2] = Phase II clinical studies, at week 12; cited from earlier work

T1 sequence (P30613 whole entry): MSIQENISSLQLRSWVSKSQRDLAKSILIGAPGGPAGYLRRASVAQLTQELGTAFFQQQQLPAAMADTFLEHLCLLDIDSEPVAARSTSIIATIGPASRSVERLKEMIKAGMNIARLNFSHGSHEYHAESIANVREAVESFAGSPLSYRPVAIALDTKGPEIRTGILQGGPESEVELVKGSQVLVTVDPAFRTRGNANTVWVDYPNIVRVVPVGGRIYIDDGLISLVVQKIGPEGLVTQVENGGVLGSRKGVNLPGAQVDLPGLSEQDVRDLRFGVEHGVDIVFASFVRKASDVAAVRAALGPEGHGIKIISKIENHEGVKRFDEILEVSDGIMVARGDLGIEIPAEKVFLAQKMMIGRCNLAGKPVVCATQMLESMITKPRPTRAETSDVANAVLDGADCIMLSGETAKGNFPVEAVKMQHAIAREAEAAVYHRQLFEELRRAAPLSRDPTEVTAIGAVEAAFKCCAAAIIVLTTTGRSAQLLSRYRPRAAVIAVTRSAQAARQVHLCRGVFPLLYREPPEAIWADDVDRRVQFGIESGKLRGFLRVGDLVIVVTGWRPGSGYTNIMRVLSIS
Chain of recombinant human PKR (P30613 whole entry): as above

Compound	AC50 [1] [nM]	AC50 (recombinant human PKR) [nM]	average increase in HGB [2] [g/dL]	patients achieved an increase in HGB of 1.0 g/dL [2] [%]
O=C(C(CO)c1ccc(F)cc1F)N1CC(=C2CN(S(=O)(=O)c3ccccn3)C2)C1 (stereo not shown) [Compound 74, 2-(2,4-difluorophenyl)-3-hydroxy-1-(1'-(pyridin-2-ylsulfonyl)-1',4'-dihydro-2H,2'H-[3,3'-diazetidinylidene]-1(4H)-yl)propan-1-one]	< 100	< 100	–	–
O=C(C(CO)c1ccc(C(F)(F)F)cc1)N1CC(=C2CN(S(=O)(=O)c3ccccn3)C2)C1 (stereo not shown) [Compound 78, 3-hydroxy-1-(1'-(pyridin-2-ylsulfonyl)-1',4'-dihydro-2H,2'H-[3,3'-diazetidinylidene]-1(4H)-yl)-2-(4-(trifluoromethyl)phenyl)propan-1-one]	300 to 1000	300 to 1000	–	–
O=C(C(CO)c1ccc2c(c1)NCCO2)N1CC(=C2CN(S(=O)(=O)c3ccccn3)C2)C1 (stereo not shown) [Compound 79, 2-(3,4-dihydro-2H-benzo[b][1,4]oxazin-6-yl)-3-hydroxy-1-(1'-(pyridin-2-ylsulfonyl)-1',4'-dihydro-2 H,2'H-[3,3'-diazetidinylidene]-1(4H)-yl)propan-1-one]	101 to 300	< 100	–	–
O=C([C@H](CO)c1ccccc1)N1CC(=C2CN(S(=O)(=O)c3ccc(OC(F)F)cn3)C2)C1 [Compound 80, (S)-1-(1'-((5-(difluoromethoxy)pyridin-2-yl)sulfonyl)-1',4'-dihydro-2H,2'H-[3,3'-diazetidinylidene]-1 (4H)-yl)-3-hydroxy-2-phenylpropan-1-one]	< 100	< 100	–	–
COc1ccc(S(=O)(=O)N2CC(=C3CN(C(=O)[C@H](CO)c4ccc(F)cc4F)C3)C2)nc1 [Compound 87, (S)-2-(2,4-difluorophenyl)-3-hydroxy-1-(1'-((5-methoxypyridin-2-yl)sulfonyl)-1',4'-dihydro-2H,2'H-[3,3'-diazetidinylidene]-1(4H)-yl)propan-1-one]	< 100	< 100	–	–
O=C(N1CC(=C2CN(S(=O)(=O)c3ccccn3)C2)C1)C1(c2ccccc2)COC1 [Compound 89, (3-phenyloxetan-3-yl)(1'-(pyridin-2-ylsulfonyl)-1',4'-dihydro-2H,2'H-[3,3'-diazetidinylidene]-1(4H)-yl)methanone]	< 100	101 to 300	–	–
[2H]C([2H])([2H])Oc1ccc(S(=O)(=O)N2CC(=C3CN(C(=O)[C@H](CO)c4ccccc4)C3)C2)nc1 [Compound 91, (S)-3-hydroxy-1-(1'-((5-(methoxy-d3)pyridin-2-yl)sulfonyl)-1',4'-dihydro-2H,2'H-[3,3'-diazetidinylidene]-1(4H)-yl)-2-phenylpropan-1-one]	< 100	< 100	–	–
O=C(c1ccc(NS(=O)(=O)c2cccc3cccnc23)cc1)N1CCN(CC2CC2)CC1 [Mitapivat]	–	–	1.34	92.3

Reference: patent EP4721737A1, “USE OF PHARMACEUTICAL COMPOSITION COMPRISING COMPOUND HAVING BIS(AZANYLYLIDENE) SULFONYL STRUCTURE FOR TREATING ANEMIA-RELATED DISEASES” (Scinnohub Pharmaceutical Co., Ltd., priority 2023, dated 2024)
